Experimental data: ChEMBL document CHEMBL4382200, “Discovery of Novel 7-Aryl 7-Deazapurine 3'-Deoxy-ribofuranosyl Nucleosides with Potent Activity against Trypanosoma cruzi” (J Med Chem, 2018)
Calls of active or inactive are those of the source. The calls are words filed in the database; no cut-off is given here.

Tests used:
Trypanosoma cruzi [1] = assay: Antiparasitic activity against Trypanosoma cruzi Tulahuen CL2 intracellular amastigotes expressing beta-galactosidase infected in human MRC5 SV2 cells after 7 days by chlorophenol red beta-D-galactopyranoside-based spectrophotometric analysis; format: functional, organism-based; conditions: Tulahuen CL2, MRC-5 SV2, 168 h
[2] = Cytotoxicity against human MRC5 SV2 cells assessed as reduction in cell viability after 3 days resazurin-based fluorimetric assay; conditions: MRC-5 SV2, 72 h
[3] = Therapeutic index, ratio EC50 for human MRC5 SV2 cells to EC50 for Trypanosoma cruzi Tulahuen CL2 intracellular amastigotes; format: toxicity, cell-based; conditions: read-out: Ratio EC50
Trypanosoma cruzi [4] = assay: (§1) Antiparasitic activity against Trypanosoma cruzi Y strain bloodstream trypomastigotes infected in Swiss Webster mouse assessed as protection against parasite-induced mortality at 100 mg/kg, po sid via gavage administered for 5 consecutive days starting from day 5 post infection measured at day 15 post infection; format: functional, organism-based
Trypanosoma cruzi [5] = assay: Trypanocidal activity against Trypanosoma cruzi Y strain intracellular amastigotes infected in mouse cardiac cells assessed as parasite death after 168 hrs by Giemsa-staining based assay; format: functional, organism-based
[6] = Cytotoxicity against Swiss mouse embryonic cardiomyocytes assessed as reduction in cell viability after 24 hrs by prestoblue-staining based colorimetry; conditions: Cardiac muscle cell
Trypanosoma cruzi [7] = assay: as §1, with “25” for “100”, “bid” for “sid”; format: functional, organism-based
Trypanosoma cruzi [8] = assay: Antiparasitic activity against Trypanosoma cruzi Y strain bloodstream trypomastigotes infected in Swiss Webster mouse at 100 mg/kg, po sid via gavage administered for 5 consecutive days starting from day 5 post infection followed by cyclophosphamide-induced immunosuppression on day 40 post infection for 4 consecutive days; format: functional, organism-based
Trypanosoma cruzi [9] = assay: Trypanocidal activity against Trypanosoma cruzi Y strain bloodstream trypomastigotes isolated from infected Swiss mouse […] assessed as parasite death after 24 hrs by neubauer chamber based light microscopy; format: functional, organism-based
Trypanosoma cruzi [10] = assay: Antiparasitic activity against Trypanosoma cruzi Y strain bloodstream trypomastigotes infected in Swiss Webster mouse assessed as decrease in parasitemia at 100 mg/kg, po sid via gavage administered for 5 consecutive days measured at day 8 post infection by direct microscopic counting; format: functional, organism-based
[11] = Drug metabolism in dog liver microsome S9 fraction assessed as UGT-mediated metabolism by measuring compound remaining at 5 uM pretreated with UDPGA and measured after 30 mins by UPLC-MS/MS analysis; format: ADME, microsomes, Canis lupus familiaris; conditions: microsomes, 0.5 h, 5 µM
[12] = Drug metabolism in mouse liver microsome S9 fraction assessed as UGT-mediated metabolism by measuring compound remaining at 5 uM pretreated with UDPGA and measured after 60 mins by UPLC-MS/MS analysis; format: ADME, microsomes; conditions: microsomes, 1 h, 5 µM
Cytochrome P450 [13] = assay: Drug metabolism in human liver microsome S9 fraction assessed as CYP450-mediated metabolism by measuring compound remaining at 5 uM pretreated with NADPH and measured after 30 mins by UPLC-MS/MS analysis; format: ADME, microsomes; conditions: microsomes, 0.5 h, 5 µM
[14] = Drug metabolism in mouse liver microsome S9 fraction assessed as UGT-mediated metabolism by measuring compound remaining at 5 uM pretreated with UDPGA and measured after 15 mins by UPLC-MS/MS analysis; format: ADME, microsomes; conditions: microsomes, 0.25 h, 5 µM
[15] = Drug metabolism in dog liver microsome S9 fraction assessed as CYP450-mediated metabolism by measuring compound remaining at 5 uM pretreated with NADPH and measured after 15 mins by UPLC-MS/MS analysis; format: ADME, microsomes, Canis lupus familiaris; conditions: microsomes, 0.25 h, 5 µM
[16] = Drug metabolism in mouse liver microsome S9 fraction assessed as UGT-mediated metabolism by measuring compound remaining at 5 uM pretreated with UDPGA and measured after 30 mins by UPLC-MS/MS analysis; format: ADME, microsomes; conditions: microsomes, 0.5 h, 5 µM
[17] = Drug metabolism in rat liver microsome S9 fraction assessed as CYP450-mediated metabolism by measuring compound remaining at 5 uM pretreated with NADPH and measured after 30 mins by UPLC-MS/MS analysis; format: ADME, microsomes; conditions: microsomes, 0.5 h, 5 µM
[18] = Drug metabolism in mouse liver microsome S9 fraction assessed as CYP450-mediated metabolism by measuring compound remaining at 5 uM pretreated with NADPH and measured after 30 mins by UPLC-MS/MS analysis; format: ADME, microsomes; conditions: microsomes, 0.5 h, 5 µM
[19] = Drug metabolism in rat liver microsome S9 fraction assessed as UGT-mediated metabolism by measuring compound remaining at 5 uM pretreated with UDPGA and measured after 15 mins by UPLC-MS/MS analysis; format: ADME, microsomes; conditions: microsomes, 0.25 h, 5 µM
[20] = Drug metabolism in mouse liver microsome S9 fraction assessed as CYP450-mediated metabolism by measuring compound remaining at 5 uM pretreated with NADPH and measured after 15 mins by UPLC-MS/MS analysis; format: ADME, microsomes; conditions: microsomes, 0.25 h, 5 µM
[21] = Drug metabolism in mouse liver microsome S9 fraction assessed as CYP450-mediated metabolism by measuring compound remaining at 5 uM pretreated with NADPH and measured after 60 mins by UPLC-MS/MS analysis; format: ADME, microsomes; conditions: microsomes, 1 h, 5 µM
[22] = Drug metabolism in dog liver microsome S9 fraction assessed as UGT-mediated metabolism by measuring compound remaining at 5 uM pretreated with UDPGA and measured after 60 mins by UPLC-MS/MS analysis; format: ADME, microsomes, Canis lupus familiaris; conditions: microsomes, 1 h, 5 µM
[23] = Drug metabolism in dog liver microsome S9 fraction assessed as UGT-mediated metabolism by measuring compound remaining at 5 uM pretreated with UDPGA and measured after 15 mins by UPLC-MS/MS analysis; format: ADME, microsomes, Canis lupus familiaris; conditions: microsomes, 0.25 h, 5 µM
[24] = Drug metabolism in rat liver microsome S9 fraction assessed as UGT-mediated metabolism by measuring compound remaining at 5 uM pretreated with UDPGA and measured after 60 mins by UPLC-MS/MS analysis; format: ADME, microsomes; conditions: microsomes, 1 h, 5 µM
[25] = test system: UDP-glucuronosyltransferases (UGTs); assay: Drug metabolism in human liver microsome S9 fraction assessed as UGT-mediated metabolism by measuring compound remaining at 5 uM pretreated with UDPGA and measured after 60 mins by UPLC-MS/MS analysis; format: ADME, microsomes; conditions: microsomes, 1 h, 5 µM
[26] = Drug metabolism in rat liver microsome S9 fraction assessed as CYP450-mediated metabolism by measuring compound remaining at 5 uM pretreated with NADPH and measured after 15 mins by UPLC-MS/MS analysis; format: ADME, microsomes; conditions: microsomes, 0.25 h, 5 µM
[27] = test system: UDP-glucuronosyltransferases (UGTs); assay: Drug metabolism in human liver microsome S9 fraction assessed as UGT-mediated metabolism by measuring compound remaining at 5 uM pretreated with UDPGA and measured after 30 mins by UPLC-MS/MS analysis; format: ADME, microsomes; conditions: microsomes, 0.5 h, 5 µM
[28] = Drug metabolism in dog liver microsome S9 fraction assessed as CYP450-mediated metabolism by measuring compound remaining at 5 uM pretreated with NADPH and measured after 60 mins by UPLC-MS/MS analysis; format: ADME, microsomes, Canis lupus familiaris; conditions: microsomes, 1 h, 5 µM
Cytochrome P450 [29] = assay: Drug metabolism in human liver microsome S9 fraction assessed as CYP450-mediated metabolism by measuring compound remaining at 5 uM pretreated with NADPH and measured after 15 mins by UPLC-MS/MS analysis; format: ADME, microsomes; conditions: microsomes, 0.25 h, 5 µM
[30] = test system: UDP-glucuronosyltransferases (UGTs); assay: Drug metabolism in human liver microsome S9 fraction assessed as UGT-mediated metabolism by measuring compound remaining at 5 uM pretreated with UDPGA and measured after 15 mins by UPLC-MS/MS analysis; format: ADME, microsomes; conditions: microsomes, 0.25 h, 5 µM
[31] = Drug metabolism in rat liver microsome S9 fraction assessed as UGT-mediated metabolism by measuring compound remaining at 5 uM pretreated with UDPGA and measured after 30 mins by UPLC-MS/MS analysis; format: ADME, microsomes; conditions: microsomes, 0.5 h, 5 µM
Cytochrome P450 [32] = assay: Drug metabolism in human liver microsome S9 fraction assessed as CYP450-mediated metabolism by measuring compound remaining at 5 uM pretreated with NADPH and measured after 60 mins by UPLC-MS/MS analysis; format: ADME, microsomes; conditions: microsomes, 1 h, 5 µM
[33] = Drug metabolism in dog liver microsome S9 fraction assessed as CYP450-mediated metabolism by measuring compound remaining at 5 uM pretreated with NADPH and measured after 30 mins by UPLC-MS/MS analysis; format: ADME, microsomes, Canis lupus familiaris; conditions: microsomes, 0.5 h, 5 µM
[34] = Drug metabolism in rat liver microsome S9 fraction assessed as CYP450-mediated metabolism by measuring compound remaining at 5 uM pretreated with NADPH and measured after 60 mins by UPLC-MS/MS analysis; format: ADME, microsomes; conditions: microsomes, 1 h, 5 µM

Nc1ncnc2c1c(-c1cc(Cl)cc(Cl)c1)cn2[C@@H]1O[C@H](CO)C[C@H]1O
EC50 (Trypanosoma cruzi [1]; read-out: EC50): 0.55 µM | EC50 [2]: 30.2 µM | selectivity ratio [3]: 55

Cc1ccc(-c2cn([C@@H]3O[C@H](CO)C[C@H]3O)c3ncnc(N)c23)cc1Cl
EC50 (Trypanosoma cruzi [1]; read-out: EC50): 0.27 µM | EC50 [2]: 17.8 µM | selectivity ratio [3]: 66

Nc1ncnc2c1c(-c1cccc(Cl)c1)cn2[C@@H]1O[C@H](CO)C[C@H]1O
EC50 (Trypanosoma cruzi [1]; read-out: EC50): 0.97 µM | EC50 [2]: 36.1 µM | selectivity ratio [3]: 37

Cc1ccc(-c2cn([C@@H]3O[C@H](CO)C[C@H]3O)c3ncnc(N)c23)cc1
EC50 (Trypanosoma cruzi [1]; read-out: EC50): 0.46 µM | EC50 [2]: 21 µM | selectivity ratio [3]: 46

O=C(Cn1ccnc1[N+](=O)[O-])NCc1ccccc1 [BENZNIDAZOLE]
Activity (Trypanosoma cruzi [4]): Active | EC50 (Trypanosoma cruzi [5]): 0.354 µM | EC50 [6]: > 400 µM | EC50 (Trypanosoma cruzi [1]): 2.28 µM | Activity (Trypanosoma cruzi [7]): Active | Activity (Trypanosoma cruzi [8]): inactive | EC50 (Trypanosoma cruzi [9]): 11.5 µM | Activity (Trypanosoma cruzi [10]): Active

Nc1ncnc2c1ncn2[C@@H]1O[C@H](CO)C[C@H]1O [CORDYCEPIN]
EC50 (Trypanosoma cruzi [1]; read-out: EC50): 2.51 µM | EC50 [2]: > 64 µM | selectivity ratio [3]: > 25

Nc1ncnc2c1c(-c1ccc(Cl)c(F)c1)cn2[C@@H]1O[C@H](CO)C[C@H]1O
EC50 (Trypanosoma cruzi [1]; read-out: EC50): 0.071 µM | EC50 [2]: 18.6 µM | selectivity ratio [3]: 260

Cc1ccc(-c2cn([C@@H]3O[C@H](CO)C[C@H]3O)c3ncnc(N)c23)cc1C
EC50 (Trypanosoma cruzi [1]; read-out: EC50): 1.37 µM | EC50 [2]: 22.3 µM | selectivity ratio [3]: 16

COc1ccc(-c2cn([C@@H]3O[C@H](CO)C[C@H]3O)c3ncnc(N)c23)cc1Cl
EC50 (Trypanosoma cruzi [1]; read-out: EC50): 3.3 µM | EC50 [2]: > 64 µM | selectivity ratio [3]: > 19

Nc1ncnc2c1c(-c1ccc(F)c(Cl)c1)cn2[C@@H]1O[C@H](CO)C[C@H]1O
EC50 (Trypanosoma cruzi [1]; read-out: EC50): 0.3 µM | EC50 [2]: 45.5 µM | selectivity ratio [3]: 150

O=C(O)Cc1ccccc1Nc1c(Cl)cccc1Cl [DICLOFENAC]
Stability [11]: Unstable | Stability [12]: Unstable | Stability (Cytochrome P450 [13]): Unstable | Stability [14]: Unstable | Stability [15]: Unstable | Stability [16]: Unstable | Stability [17]: Unstable | Stability [18]: Unstable | Stability [19]: Unstable | Stability [20]: Unstable | Stability [21]: Unstable | Stability [22]: Unstable | Stability [23]: Unstable | Stability [24]: Unstable | Stability [25]: Unstable | Stability [26]: Unstable | Stability [27]: Unstable | Stability [28]: Unstable | Stability (Cytochrome P450 [29]): Unstable | Stability [30]: Unstable | Stability [31]: Unstable | Stability (Cytochrome P450 [32]): Unstable | Stability [33]: Unstable | Stability [34]: Unstable

Nc1ncnc2c1c(-c1ccc(Cl)cc1Cl)cn2[C@@H]1O[C@H](CO)C[C@H]1O
EC50 (Trypanosoma cruzi [1]; read-out: EC50): 0.45 µM | EC50 [2]: 19.6 µM | selectivity ratio [3]: 44

COc1ccc(-c2cn([C@@H]3O[C@H](CO)C[C@H]3O)c3ncnc(N)c23)cc1
EC50 (Trypanosoma cruzi [1]; read-out: EC50): 2.38 µM | EC50 [2]: 24.3 µM | selectivity ratio [3]: 10

CC(C)c1ccc(-c2cn([C@@H]3O[C@H](CO)C[C@H]3O)c3ncnc(N)c23)cc1
EC50 (Trypanosoma cruzi [1]; read-out: EC50): 8.48 µM | EC50 [2]: 24.9 µM | selectivity ratio [3]: 2.9
